Laboratory results as given in patent US20240299387A1, “HETEROCYCLIC EGFR INHIBITORS FOR USE IN THE TREATMENT OF CANCER” (Blueprint Medicines Corporation, priority 2021, published 2024).
Read-outs that look alike come from different tables or passages of the source.

Experiments:
[1] = molecular target: T1, EGFR L858R T790M in NCI-H1975 cell line (Homo sapiens, UniProt P00533, L858R/T790M); assay: NCI-H1975 pEGFR AlphaLISA assay; format: cell-based; conditions: NCI-H1975 cells (EGFR L858R T790M), p-EGFR (Tyr1068), 4-5 hours incubation; read-out: Ext pEGFR H1975 GMean IC50 (nM) Protocol: @Pharmaron AlphaLISA (Num)
T1 construct: host or cells: NCI-H1975
T1 sequence (P00533 25-1210 T790M/L858R): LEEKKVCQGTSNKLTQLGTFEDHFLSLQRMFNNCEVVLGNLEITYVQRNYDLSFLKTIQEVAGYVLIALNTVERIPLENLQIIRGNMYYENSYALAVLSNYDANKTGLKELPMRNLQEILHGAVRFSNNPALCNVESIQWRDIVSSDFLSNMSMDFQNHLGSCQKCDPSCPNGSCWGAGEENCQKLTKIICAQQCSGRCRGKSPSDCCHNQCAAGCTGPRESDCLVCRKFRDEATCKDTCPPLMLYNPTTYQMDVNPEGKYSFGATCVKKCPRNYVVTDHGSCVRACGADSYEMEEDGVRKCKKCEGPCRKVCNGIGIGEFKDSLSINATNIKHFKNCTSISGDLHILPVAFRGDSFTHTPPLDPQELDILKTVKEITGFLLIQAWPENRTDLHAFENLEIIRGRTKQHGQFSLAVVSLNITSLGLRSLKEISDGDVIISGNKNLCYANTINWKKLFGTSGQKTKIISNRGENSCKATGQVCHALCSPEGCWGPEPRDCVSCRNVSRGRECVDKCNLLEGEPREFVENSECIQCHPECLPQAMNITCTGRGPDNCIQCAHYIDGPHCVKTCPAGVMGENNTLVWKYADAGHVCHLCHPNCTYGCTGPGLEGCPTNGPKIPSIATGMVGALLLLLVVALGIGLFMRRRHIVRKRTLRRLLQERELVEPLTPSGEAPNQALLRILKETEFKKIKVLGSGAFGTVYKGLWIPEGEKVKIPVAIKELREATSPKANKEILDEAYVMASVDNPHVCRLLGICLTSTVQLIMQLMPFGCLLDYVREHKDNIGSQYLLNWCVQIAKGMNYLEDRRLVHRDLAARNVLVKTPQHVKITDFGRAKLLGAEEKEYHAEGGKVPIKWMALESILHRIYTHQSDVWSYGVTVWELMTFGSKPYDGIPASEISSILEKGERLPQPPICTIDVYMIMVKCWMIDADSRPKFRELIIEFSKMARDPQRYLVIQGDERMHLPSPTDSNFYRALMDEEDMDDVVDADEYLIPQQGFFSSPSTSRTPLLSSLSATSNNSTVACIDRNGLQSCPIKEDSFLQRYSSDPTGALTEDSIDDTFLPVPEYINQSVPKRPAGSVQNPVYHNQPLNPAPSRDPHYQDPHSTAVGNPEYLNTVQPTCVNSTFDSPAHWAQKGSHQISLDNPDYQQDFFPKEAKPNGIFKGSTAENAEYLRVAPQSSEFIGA
Experimental: The NCI-H1975 cells were seeded at 12.5K/well in 22 μL into 384 well opti plate (PerkinElmer, 6007299) and adhering overnight at 37C/5% CO2. On the next day, the test compounds and DMSO control were added into H1975 cell plate followed by incubation at 37C/5% CO2 for 4-5 hours. […] Then 5 μL of a donor bead mix was added to each well followed by overnight incubation at room temperature in dark. On the next day, the plate was read at a compatible plate reader to obtain pEGFR signal. Percent of pEGFR inhibition was plotted against log concentration of compounds to generate IC50 values.

[2] = molecular target: T2, EGFR (L858R T790M C797S) (Homo sapiens, UniProt P00533, C797S/L858R/T790M); assay: Biochemical EGFR inhibition assay (Caliper mobility shift), EGFR LRTMCS mutant
T2 construct: purchased SignalChem E10-122VG
T2 sequence (P00533 25-1210 T790M/C797S/L858R): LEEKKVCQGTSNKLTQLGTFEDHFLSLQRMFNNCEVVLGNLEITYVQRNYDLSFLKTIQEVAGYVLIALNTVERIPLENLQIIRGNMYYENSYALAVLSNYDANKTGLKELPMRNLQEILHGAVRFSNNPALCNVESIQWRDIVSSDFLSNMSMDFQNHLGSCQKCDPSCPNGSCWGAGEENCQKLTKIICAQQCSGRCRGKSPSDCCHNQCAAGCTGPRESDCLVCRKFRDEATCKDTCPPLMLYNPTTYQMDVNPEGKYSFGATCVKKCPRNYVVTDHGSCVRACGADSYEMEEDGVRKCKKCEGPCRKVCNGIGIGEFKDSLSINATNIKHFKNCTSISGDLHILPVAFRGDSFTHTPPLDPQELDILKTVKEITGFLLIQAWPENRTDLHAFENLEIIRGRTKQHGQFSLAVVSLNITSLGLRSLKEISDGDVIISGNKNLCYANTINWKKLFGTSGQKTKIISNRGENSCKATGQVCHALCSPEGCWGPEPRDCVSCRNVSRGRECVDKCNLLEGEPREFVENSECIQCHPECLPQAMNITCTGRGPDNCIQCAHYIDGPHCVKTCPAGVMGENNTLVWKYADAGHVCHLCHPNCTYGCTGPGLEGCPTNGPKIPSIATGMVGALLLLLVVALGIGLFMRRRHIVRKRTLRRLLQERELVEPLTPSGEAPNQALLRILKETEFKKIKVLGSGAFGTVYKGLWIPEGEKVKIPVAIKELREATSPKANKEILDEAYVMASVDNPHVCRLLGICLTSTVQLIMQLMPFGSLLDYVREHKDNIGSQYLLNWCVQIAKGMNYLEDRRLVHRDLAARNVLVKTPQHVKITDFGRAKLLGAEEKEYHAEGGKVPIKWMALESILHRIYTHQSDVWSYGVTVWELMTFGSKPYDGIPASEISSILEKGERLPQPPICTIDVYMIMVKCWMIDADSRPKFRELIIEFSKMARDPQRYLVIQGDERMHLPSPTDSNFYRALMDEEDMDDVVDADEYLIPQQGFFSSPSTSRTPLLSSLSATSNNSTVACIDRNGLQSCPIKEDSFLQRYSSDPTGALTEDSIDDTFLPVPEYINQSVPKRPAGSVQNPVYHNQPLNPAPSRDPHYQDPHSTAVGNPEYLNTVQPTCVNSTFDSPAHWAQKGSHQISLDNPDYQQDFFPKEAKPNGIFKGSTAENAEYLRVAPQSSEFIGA
Experimental: Reactions proceeded until between 10% to 20% total peptides were phosphorylated at room temperature (25° C.) and were terminated with 35 mM 2,2′,2″,2′″-(ethane-1,2-diyldinitrilo)tetraacetic acid (EDTA). Product was detected using the Caliper mobility shift detection method where the phosphorylated peptide (product) and substrate were electrophoretically separated and measured. Percent activity was plotted against log concentration of compound and points to generate an apparent IC50.

[3] = LRTMCS (PH) IC50 (nM) @ 1 mM ATP (Num)

Row | IC50 [1] [nM] | IC50 [2, 3] [nM] | IC50 ([2]; read-out: LRTMCS (PH) IC50 (nM) @ 1 mM ATP (Num)) [nM] | SMILES
1 | 20 to 30 | < 15 |  | CC(=O)N1CC(CNc2ccc(C(C)C)c3cc(Nc4ccnc(N5CC[C@@H](O)[C@@](C)(F)C5)n4)ncc23)C1 [Example 5, 1-(3-(((3-((2-((3S,4R)-3-fluoro-4-hydroxy-3-methylpiperidin-1-yl)pyrimidin-4-yl)amino)-5-isopropylisoquinolin-8-yl)amino)methyl)azetidin-1-yl)ethan-1-one]
2 | > 50 | 15 to 20 |  | CC(C)c1ccc(OC[C@@H]2COC(=O)N2C)c2cnc(Nc3ccnc(N4CC[C@@H](OCCN(C)C)[C@@H](F)C4)n3)cc12 [Example 53, (R)-4-(((3-((2-((3S,4R)-4-(2-(dimethylamino)ethoxy)-3-fluoro-piperidin-1-yl)pyrimidin-4-yl)amino)-5-isopropylisoquinolin-8-yl)oxy)methyl)-3-methyloxazolidin-2-one]
3 | > 50 | 30 to 100 |  | CC(C)c1cnc(C(=O)NCC(C)(C)O)c2cnc(Nc3ccnc(N4CC[C@@H](O)[C@@](C)(F)C4)n3)cc12 [Example 70, 6-((2-((3S,4R)-3-fluoro-4-hydroxy-3-methylpiperidin-1-yl)pyrimidin-4-yl)amino)-N-(2-hydroxy-2-methylpropyl)-4-isopropyl-2,7-naphthyridine-1-carboxamide]
4 | 20 to 30 | < 15 |  | CCO[C@H]1C[C@H](NC(=O)c2ncc(C(C)C)c3cc(Nc4ccnc(N5CC[C@@H](O)[C@@](C)(F)C5)n4)ncc23)C1 [Example 84, N-((1r,3r)-3-ethoxycyclobutyl)-6-((2-((3S,4R)-3-fluoro-4-hydroxy-3-methylpiperidin-1-yl)pyrimidin-4-yl)amino)-4-isopropyl-2,7-naphthyridine-1-carboxamide]
5 | > 50 | 15 to 20 |  | CO[C@@H]1CCN(c2nccc(Nc3cc4c(C(C)C)ncc(OCCn5cnnc5)c4cn3)n2)C[C@@H]1F [Example 55, 8-(2-(4H-1,2,4-triazol-4-yl)ethoxy)-N-(2-((3S,4R)-3-fluoro-4-methoxypiperidin-1-yl)pyrimidin-4-yl)-5-isopropyl-2,6-naphthyridin-3-amine]
6 | > 50 | 15 to 20 |  | [2H]C([2H])([2H])O[C@@H]1CCN(c2nccc(Nc3cc4c(C(C)C)ccc(OC[C@H]5CCC(=O)N5C)c4cn3)n2)C[C@@H]1F [Example 47, (R)-5-(((3-((2-((3S,4R)-3-fluoro-4-(methoxy-d3)piperidin-1-yl)pyrimidin-4-yl)amino)-5-isopropylisoquinolin-8-yl)oxy)methyl)-1-methylpyrrolidin-2-one]
7 | 30 to 50 |  | 15 to 20 | CC(C)c1ccc(OC[C@H]2COC(=O)N2C)c2cnc(Nc3ccnc(N4CC[C@@](C)(O)[C@@H](F)C4)n3)cc12 (single isomer, unassigned) [Example 23]
8 | > 50 | > 100 |  | CNc1nnc(C(C)C)c2cc(Nc3ccnc(N4CC[C@@H](O)[C@@H](F)C4)n3)ncc12 [Example 95]
9 | 10 to 20 | < 15 |  | CC(C)c1ccc(OC[C@H]2CCC(=O)N2C)c2cnc(Nc3ccnc(N4CCC(C)(O)CC4)n3)cc12 (single isomer, unassigned) [Example 19, (R)-5-(((3-((2-(4-hydroxy-4-methylpiperidin-1-yl)pyrimidin-4-yl)amino)-5-isopropylisoquinolin-8-yl)oxy)methyl)-1-methylpyrrolidin-2-one or (S)-5-(((3-((2-(4-hydroxy-4-methylpiperidin-1-yl)pyrimidin-4-yl)amino)-5-isopropylisoquinolin-8-yl)oxy)methyl)-1-methylpyrrolidin-2-one]
10 | > 50 | < 15 |  | CC(C)c1cnc(C(=O)NCCF)c2cnc(Nc3ccnc(N4CC[C@@H](O)[C@@](C)(F)C4)n3)cc12 [Example 62, 6-((2-((3S,4R)-3-fluoro-4-hydroxy-3-methylpiperidin-1-yl)pyrimidin-4-yl)amino)-N-(2-fluoroethyl)-4-isopropyl-2,7-naphthyridine-1-carboxamide]
11 | 30 to 50 | < 15 |  | CC(C)c1cnc(C(=O)NC2CS(=O)(=O)C2)c2cnc(Nc3ccnc(N4CC[C@@H](O)[C@@](C)(F)C4)n3)cc12 [Example 76, N-(1,1-dioxidothietan-3-yl)-6-((2-((3S,4R)-3-fluoro-4-hydroxy-3-methylpiperidin-1-yl)pyrimidin-4-yl)amino)-4-isopropyl-2,7-naphthyridine-1-carboxamide]
12 | > 50 | 20 to 30 |  | CC(C)c1ccc(OCCn2cnnc2)c2cnc(Nc3ccnc(N4CC[C@H]5COC[C@H]54)n3)cc12 (single isomer, unassigned) [Example 50]
13 | > 50 | 15 to 20 |  | CNC(=O)c1ncc(C(C)C)c2cc(Nc3ccnc(N4C[C@@H](F)[C@@H](O)C(C)(C)C4)n3)ncc12 (single isomer, unassigned) [Example 82, 6-((2-((4S,5R)-5-fluoro-4-hydroxy-3,3-dimethylpiperidin-1l-yl)pyrimidin-4-yl)amino)-4-isopropyl-N-methyl-2,7-naphthyridine-1-carboxamide or 6-((2-((4R,5S)-5-fluoro-4-hydroxy-3,3-dimethylpiperidin-1-yl)pyrimidin-4-yl)amino)-4-isopropyl-N-methyl-2,7-naphthyridine-1-carboxamide]
14 | > 50 | 15 to 20 |  | CNC(=O)c1ncc(C(C)C)c2cc(Nc3ccnc(N4CC[C@@H](O)[C@@](C)(F)C4)n3)ncc12 [Example 64, 6-((2-((3S,4R)-3-fluoro-4-hydroxy-3-methylpiperidin-1-yl)pyrimidin-4-yl)amino)-4-isopropyl-N-methyl-2,7-naphthyridine-1-carboxamide]
15 | 10 to 20 | < 15 |  | CC(C)c1cnc(C(=O)N[C@H]2CN(C)C[C@H]2F)c2cnc(Nc3ccnc(N4CC[C@@H](O)[C@@](C)(F)C4)n3)cc12 (single isomer, unassigned) [Example 87]
16 | 30 to 50 | < 15 |  | CO[C@@H]1CCN(c2nccc(Nc3cc4c(C(C)C)ccc(NCC5CNC[C@@H]5S(C)(=O)=O)c4cn3)n2)C[C@@H]1F (single isomer, unassigned) [Example 1, N3-(2-((3S,4R)-3-fluoro-4-methoxypiperidin-1-yl)pyrimidin-4-yl)-5-isopropyl-N8-(((4R)-4-(methylsulfonyl)pyrrolidin-3-yl)methyl)isoquinoline-3,8-diamine or N3-(2-((3S,4R)-3-fluoro-4-methoxypiperidin-1-yl)pyrimidin-4-yl)-5-isopropyl-N8-(((4S)-4-(methylsulfonyl)pyrrolidin-3-yl)methyl)isoquinoline-3,8-diamine]
17 | 20 to 30 | < 15 |  | CC(C)c1ccc(OCCn2ccnc2)c2cnc(Nc3ccnc(N4CC[C@](C)(O)[C@H](F)C4)n3)cc12 [Example 29, (3R,4S)-1-(4-((8-(2-(1H-imidazol-1-yl)ethoxy)-5-isopropylisoquinolin-3-yl)amino)pyrimidin-2-yl)-3-fluoro-4-methylpiperidin-4-ol]
18 | 10 to 20 | < 15 |  | CC(C)c1cnc(NCCS(C)(=O)=O)c2cnc(Nc3ccnc(N4CC[C@@H](O)[C@@](C)(F)C4)n3)cc12 [Example 2, (3S,4R)-3-fluoro-1-(4-((5-isopropyl-8-((2-(methylsulfonyl)ethyl)amino)-2,7-naphthyridin-3-yl)amino)pyrimidin-2-yl)-3-methylpiperidin-4-ol]
19 | 20 to 30 | < 15 |  | CNc1ccc(C(C)C)c2cc(Nc3ccnc(N4CC[C@@H](O)[C@@](C)(F)C4)n3)ncc12 [Example 91, (3S,4R)-3-fluoro-1-(4-((5-isopropyl-8-(methylamino)isoquinolin-3-yl)amino)pyrimidin-2-yl)-3-methylpiperidin-4-ol]
20 | > 50 | 30 to 100 |  | CC(C)c1cnc(NC[C@H](C)N(C)C)c2cnc(Nc3ccnc(N4CC[C@@H](O)[C@@](C)(F)C4)n3)cc12 (single isomer, unassigned) [Example 4, (3S,4R)-1-(4-((8-(((S)-2-(dimethylamino)propyl)amino)-5-isopropyl-2,7-naphthyridin-3-yl)amino)pyrimidin-2-yl)-3-fluoro-3-methylpiperidin-4-ol or (3S,4R)-1-(4-((8-(((R)-2-(dimethylamino)propyl)amino)-5-isopropyl-2,7-naphthyridin-3-yl)amino)pyrimidin-2-yl)-3-fluoro-3-methylpiperidin-4-ol]
21 | > 50 | 15 to 20 |  | [2H]C([2H])([2H])O[C@@H]1CCN(c2nccc(Nc3cc4c(C(C)C)ccc(OCCn5ccnc5)c4cn3)n2)C[C@@H]1F [Example 49, 8-(2-(1H-imidazol-1-yl)ethoxy)-N-(2-((3S,4R)-3-fluoro-4-(methoxy-d3)piperidin-1-yl)pyrimidin-4-yl)-5-isopropylisoquinolin-3-amine]
